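Exposure lasted 48 hours, with cells grown in 96-well plates and compounds tested at five concentrations. The concentration for full growth arrest is given as TGI.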
Legend:
Assay in all cases: growth of human tumour cells (NCI), 48 h
NCI/ADR-RES ovarian = system: NCI/ADR-RES ovarian
CAKI-1 renal = system: CAKI-1 renal
A549 NSCLC = system: A549 NSCLC
SNB-19 CNS = system: SNB-19 CNS
MDA-MB-231 breast = system: MDA-MB-231 breast
SR leukemia = system: SR leukemia
HL-60(TB) leukemia = system: HL-60(TB) leukemia
HOP-62 NSCLC = system: HOP-62 NSCLC
HCC-2998 colon = system: HCC-2998 colon
OVCAR-8 ovarian = system: OVCAR-8 ovarian
COLO 205 colon = system: COLO 205 colon
IGROV1 ovarian = system: IGROV1 ovarian
NCI-H522 lung = system: NCI-H522 lung
TK-10 renal = system: TK-10 renal
NCI-H226 lung = system: NCI-H226 lung
RPMI-8226 leukemia = system: RPMI-8226 leukemia
PC-3 prostate = system: PC-3 prostate
HCT-15 colon = system: HCT-15 colon
OVCAR-3 ovarian = system: OVCAR-3 ovarian
UACC-62 melanoma = system: UACC-62 melanoma
HT29 colon = system: HT29 colon
HCT-116 colon = system: HCT-116 colon
SF-268 CNS = system: SF-268 CNS
SNB-75 CNS = system: SNB-75 CNS
HOP-92 NSCLC = system: HOP-92 NSCLC
K-562 leukemia = system: K-562 leukemia
BT-549 breast = system: BT-549 breast
NCI-H23 lung = system: NCI-H23 lung
SF-539 CNS = system: SF-539 CNS
SF-295 CNS = system: SF-295 CNS
MOLT-4 leukemia = system: MOLT-4 leukemia
MDA-MB-435 = system: MDA-MB-435
MDA-N = system: MDA-N
A498 renal = system: A498 renal
U251 CNS = system: U251 CNS
UO-31 renal = system: UO-31 renal
UACC-257 melanoma = system: UACC-257 melanoma
SK-MEL-2 melanoma = system: SK-MEL-2 melanoma
SK-MEL-5 melanoma = system: SK-MEL-5 melanoma
RXF 393 renal = system: RXF 393 renal
T-47D breast = system: T-47D breast
SN12C renal = system: SN12C renal
ACHN renal = system: ACHN renal
MALME-3M melanoma = system: MALME-3M melanoma
DU-145 prostate = system: DU-145 prostate
M14 melanoma = system: M14 melanoma
NCI-H460 lung = system: NCI-H460 lung
KM12 colon = system: KM12 colon
OVCAR-4 ovarian = system: OVCAR-4 ovarian
SK-MEL-28 melanoma = system: SK-MEL-28 melanoma
SK-OV-3 ovarian = system: SK-OV-3 ovarian
SW-620 colon = system: SW-620 colon
EKVX NSCLC = system: EKVX NSCLC
OVCAR-5 ovarian = system: OVCAR-5 ovarian
786-0 renal = system: 786-0 renal
HS 578T breast = system: HS 578T breast
LOX IMVI melanoma = system: LOX IMVI melanoma
MCF7 breast = system: MCF7 breast
DMS 114 small cell lung = system: DMS 114 small cell lung
M19-MEL melanoma = system: M19-MEL melanoma
CCRF-CEM leukemia = system: CCRF-CEM leukemia
DMS 273 small cell lung = system: DMS 273 small cell lung

O=C(O)C1=NN(c2ccc(S(=O)(=O)O)cc2)C2(C1)C(Cl)C(=O)N2c1nc2ccccc2s1 (stereo unspecified)
TGI (NCI/ADR-RES ovarian): 56.2 µM | TGI (CAKI-1 renal): 31.5 µM | TGI (A549 NSCLC): 35.2 µM | TGI (SNB-19 CNS): 64.8 µM | TGI (MDA-MB-231 breast): 37.5 µM | TGI (SR leukemia): 24.5 µM | TGI (HL-60(TB) leukemia): 34.4 µM | TGI (HOP-62 NSCLC): 30.5 µM | TGI (HCC-2998 colon): 33.4 µM | TGI (OVCAR-8 ovarian): 38.8 µM | TGI (COLO 205 colon): 35.1 µM | TGI (IGROV1 ovarian): 21.5 µM | TGI (NCI-H522 lung): 25.8 µM | TGI (TK-10 renal): 33.2 µM | TGI (NCI-H226 lung): 41.4 µM | TGI (RPMI-8226 leukemia): 35.6 µM | TGI (PC-3 prostate): 31.2 µM | TGI (HCT-15 colon): 42.4 µM | TGI (OVCAR-3 ovarian): 33.8 µM | TGI (UACC-62 melanoma): 29.5 µM | TGI (HT29 colon): 34.9 µM | TGI (HCT-116 colon): 33.1 µM | TGI (SF-268 CNS): 39.8 µM | TGI (SNB-75 CNS): 30.7 µM | TGI (HOP-92 NSCLC): 48.8 µM | TGI (K-562 leukemia): 58.5 µM | TGI (BT-549 breast): 33 µM | TGI (NCI-H23 lung): 30.2 µM | TGI (SF-539 CNS): 12.6 µM | TGI (SF-295 CNS): 32.3 µM | TGI (MOLT-4 leukemia): 39.6 µM | TGI (MDA-MB-435): 32.6 µM | TGI (MDA-N): 53.1 µM | TGI (A498 renal): 36.7 µM | TGI (U251 CNS): 32.1 µM | TGI (UO-31 renal): 22.9 µM | TGI (UACC-257 melanoma): 37.2 µM | TGI (SK-MEL-2 melanoma): 32 µM | TGI (SK-MEL-5 melanoma): 25.6 µM | TGI (RXF 393 renal): 34.8 µM | TGI (T-47D breast): 44.8 µM | TGI (SN12C renal): 43.7 µM | TGI (ACHN renal): 30.7 µM | TGI (MALME-3M melanoma): 38.7 µM | TGI (DU-145 prostate): 55.9 µM | TGI (M14 melanoma): 30.3 µM | TGI (NCI-H460 lung): 33.2 µM | TGI (KM12 colon): 34.1 µM | TGI (OVCAR-4 ovarian): 35.3 µM | TGI (SK-MEL-28 melanoma): 46.3 µM | TGI (SK-OV-3 ovarian): 30.6 µM | TGI (SW-620 colon): 19.8 µM | TGI (EKVX NSCLC): 34.3 µM | TGI (OVCAR-5 ovarian): 32.8 µM | TGI (786-0 renal): 32 µM | TGI (HS 578T breast): > 100 µM | TGI (LOX IMVI melanoma): 12.7 µM | TGI (MCF7 breast): 29.9 µM

O=C1N[C@@H]2CCC[C@@H]2[C@@H]1c1ccc(Cl)cc1
TGI (CAKI-1 renal): > 100 µM | TGI (A549 NSCLC): > 100 µM | TGI (SNB-19 CNS): > 100 µM | TGI (HL-60(TB) leukemia): > 100 µM | TGI (DMS 114 small cell lung): > 100 µM | TGI (OVCAR-8 ovarian): > 100 µM | TGI (COLO 205 colon): > 100 µM | TGI (IGROV1 ovarian): > 100 µM | TGI (NCI-H522 lung): > 100 µM | TGI (M19-MEL melanoma): > 100 µM | TGI (TK-10 renal): > 100 µM | TGI (NCI-H226 lung): > 100 µM | TGI (RPMI-8226 leukemia): > 100 µM | TGI (HCT-15 colon): > 100 µM | TGI (OVCAR-3 ovarian): > 100 µM | TGI (UACC-62 melanoma): > 100 µM | TGI (HT29 colon): > 100 µM | TGI (SF-268 CNS): > 100 µM | TGI (SNB-75 CNS): > 100 µM | TGI (K-562 leukemia): > 100 µM | TGI (NCI-H23 lung): > 100 µM | TGI (SF-539 CNS): > 100 µM | TGI (SF-295 CNS): > 100 µM | TGI (MOLT-4 leukemia): > 100 µM | TGI (CCRF-CEM leukemia): > 100 µM | TGI (UO-31 renal): > 100 µM | TGI (UACC-257 melanoma): > 100 µM | TGI (SK-MEL-5 melanoma): > 100 µM | TGI (RXF 393 renal): > 100 µM | TGI (SN12C renal): > 100 µM | TGI (M14 melanoma): > 100 µM | TGI (KM12 colon): > 100 µM | TGI (SK-MEL-28 melanoma): > 100 µM | TGI (SK-OV-3 ovarian): > 100 µM | TGI (SW-620 colon): > 100 µM | TGI (EKVX NSCLC): > 100 µM | TGI (DMS 273 small cell lung): > 100 µM | TGI (LOX IMVI melanoma): > 100 µM

From PubChem BioAssay (NCI)
